Experimental data from US6071884A, “Pharmaceutical compositions and therapeutic methods” (Kirin Beer Kabushiki Kaisha, priority 1992, dated 2000).

Key:
[1] = system: mononuclear cell fraction of human umbilical cord blood; assay: Proliferation-stimulating effect on mononuclear cell fraction of human umbilical cord blood (3H-TdR uptake); type: cell-based; settings: 96 h, percentage of control, 4 days
Summary of the method: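 Umbilical cord blood MNF (Lymphoprep) cultured at 1×10^6 cells/ml in RPMI 1640 with 10% autologous plasma with sample for 4 days at 37° C, 5% CO2. 0.5 μCi/well 3H-TdR then added for 8 h, and nuclear uptake measured by liquid scintillation counting.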

[2] = system: marrow cells (mononuclear cell fraction); assay: Proliferation-stimulating effect on marrow cell of mouse (3H-TdR uptake); type: cell-based, mouse (BALB/c); settings: percentage of control, 72 h
Summary of the method: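 Mononuclear marrow cell fraction from 7-week-old female BALB/c mouse thigh bone, 1.5×10^6 cells/ml in 10% FCS RPMI 1640, cultured with test sample 72 h at 37° C. ³H-thymidine (0.5 μCi/well) then added for 8 h; nuclear ³H-TdR uptake counted by liquid scintillation.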

[3] = system: blood platelets; assay: Blood-platelet-increasing effect upon normal mouse; type: in vivo, mouse (BDF1); settings: normal mice; 6 days after 0.1 mg/kg i.v.; mean ± SD; vehicle per series 58.2, 63.0, 71.1
Summary of the method: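 Female BDF1 mice, 6 weeks old (5 per group), received test sample at 0.1 mg/kg into the caudal vein. Six days later, fundus-vein blood was taken and platelets counted on a multi-channel hemocytometer, compared against vehicle-treated animals.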

[4] = Observation of body weight and general condition in monkey; type: in vivo, croo monkey; settings: 1 mg/body i.v.; until 10 days after administration
[5] = Life-span-increasing effect on irradiation of a lethal dose of radiation; type: in vivo, mouse (BDF1); settings: 10 mice/group, 9 Gy X-ray, 0.1 mg/kg i.v. days 0, 4, 8
Procedure: Pharmacological Test 4: Life-Span-Increasing Effect on Irradiation of a Lethal Dose of Radiation
An experiment was carried out by using 6 week old female BDF1 mice purchased from Japan SLC Co., Ltd., with 10 mice made one group.
The entire bodies of the entire body of the mice were irradiated with 9 Gy of X-rays by using a Hitachi X-ray irradiator (MBR-1520R), and the day on which the X-ray was irradiated was referred to as "day 0".

[6] = system: blood platelets; assay: Blood-platelet-increasing effect upon monkey; type: in vivo, croo monkey; settings: for Number of Blood Platelets: mean ± SD
Procedure: Subsequently, in order to examine the effect on Primates, the effect of Compound 33 was examined as a representative of the compounds represented by the formula (A), by using normal croo monkeys.
Pharmacological Test 7: Blood-Platelet-Increasing Effect upon Monkey
Six croo monkeys (female, 3 to 5 years old, 2.3 to 2.8 kg), 2 monkeys in one group were used. A vehicle, 0.1 mg/body of the compound 33 or 1 mg/body of the compound 33 was intravenously administered to the monkeys. 6 and 9 days after the administration, blood was collected by using a blood-collecting tube EDTA-2K, and the numbers of blood platelets, white blood cells and red blood cells contained in the peripheral blood were measured by using an E-2500/cs. The results are shown in Tables 7-1, 7-2 and 7-3, respectively.

[7] = system: marrow cells (mononuclear cell fraction); assay: Effect on marrow cell of monkey (3H-TdR uptake); type: cell-based, croo monkey; settings: Primates, 96 h, percentage of control, 4 days
Procedure: Pharmacological Test 2: Effect on Marrow Cell of Monkey
Marrow cells were prepared from the humerus of a croo monkey, and an MNF obtained by fractionation using a Lymphoprep (Nycomed Pharma AS, Oslo, Norway) was used in the following experiment.
The MNF was suspended in an RPMI 1640 medium added with 10% blood plasma of a croo monkey to make its concentration 1×10^6 cells/ml.
10 μl/well of a sample with a predetermined concentration and 100 μl/well of the above-prepared MNF were placed on a round-bottomed 96 well plate, and incubated under the conditions of 37° C. and 5% CO2 for 4 days. Thereafter, 0.5 μCi/well of ^3 H-TdR was added. After 6 hours, the cells were harvested, and the amount of the ^3 H-TdR taken in the nuclei was measured by a liquid scintillation counter.

[8] = Acute toxicity; type: in vivo; settings: 7 days
Procedure: Test Example 2: Acute Toxicity
0.1, 1.0 or 10 mg/kg of Compound 5 or 33 was intravenously administered to Crj:CD rats (male, 5 weeks old), 6 rats in one group. 7 days after the administration, a toxicity test was carried out.

`CCCCCCCCCCCCCCCCCCCCCCCCCC(=O)N[C@@H](CO[C@H]1O[C@H](CO)[C@H](O)[C@H](O)[C@H]1O)[C@H](O)[C@H](O)CCCCCCCCCCCCCC` [Compound 33, (2S,3S,4R)-1-(α-D-galactopyranosyloxy)-2-hexacosanoylamino-3,4-octadecanediol] gave an activity at 0.1 µg/mL ([1]; 10^-1 μg/ml) of 409%, an activity at 0.01 µg/mL ([1]; 10^-2 μg/ml) of 256% and an activity at 0.001 µg/mL ([1]; 10^-3 μg/ml) of 228%. For the same compound, the activity at 0.1 µg/mL ([2]; 10^-1 μg/ml) was 460%, the activity at 0.01 µg/mL ([2]; 10^-2 μg/ml) was 330% and the activity at 0.001 µg/mL ([2]; 10^-3 μg/ml) was 175%. The “Number of Blood Platelets” value [3] was 142.3 ± 10.2 × 10^4 /μl, the “abnormality in body weight and in general condition” value [4] was “no abnormality in body weight and in general condition was found” and the “Number of Surviving Mice” value ([5]; day 10, controls per series 10, 10, 10, 10, 10, 8) was 10 mice. The “Number of Surviving Mice” value ([5]; day 15, controls per series 8, 9, 5, 5, 7, 1) was 8 mice, the “Number of Surviving Mice” value ([5]; day 20, controls per series 4, 5, 1, 2, 3, 0) was 7 mice and the “Number of Surviving Mice” value ([5]; day 25, controls per series 3, 3, 0, 0, 2, 0) was 5 mice. For the same compound, the “Number of Surviving Mice” value ([5]; day 30, controls per series 1, 1, 0, 0, 0, 0) was 5 mice, the “Number of Surviving Mice” value ([5]; day 35, all controls 0) was 5 mice and the “Number of Surviving Mice” value ([5]; day 40, all controls 0) was 5 mice. For the same compound, the “Number of Blood Platelets” value ([6]; 0.1 mg/body i.v., after 6 days, vehicle 37.8 ± 8.5) was 56.4 ± 5.2 × 10^4 /μl, the “Number of Blood Platelets” value ([6]; 0.1 mg/body i.v., after 9 days, vehicle 37.4 ± 12.4) was 52.4 ± 9.0 × 10^4 /μl and the “blood-platelet-increasing effect (in words)” value ([6]; 0.1 mg/body, almost equal to 1 mg/body) was “remarkable blood-platelet-increasing effect”. For the same compound, the “Number of Blood Platelets” value ([6]; 1 mg/body i.v., after 6 days, vehicle 37.8 ± 8.5) was 62.1 ± 15.9 × 10^4 /μl, the “Number of Blood Platelets” value ([6]; 1 mg/body i.v., after 9 days, vehicle 37.4 ± 12.4) was 64.7 ± 23.7 × 10^4 /μl and the activity at 0.1 µg/mL ([7]; 10^-1 μg/ml) was 177%. For the same compound, the activity at 0.01 µg/mL ([7]; 10^-2 μg/ml) was 194%, the death of rats ([8]; 10 mg/kg i.v.) was “the rats did not die” and the post-mortem examination ([8]; i.v. 0.1, 1.0 or 10 mg/kg) was “no abnormality was found”. The LD50 at 168 h ([8]; rat, in vivo, iv, male rats) was ≥ 10 mg/kg.
